Experimental data: ChEMBL document CHEMBL5723582, “Data for DCP probe T-10430” (2024)

How the values were obtained:
Settings in all cases: Compound concentration 1.0 uM
[1] = molecular target: Adenosine receptor A2b (Homo sapiens) (UniProt P29275); assay: RLU of ADORA2B at 1.0 µM in the […] PRESTO-Tango GPCRome screen
[2] = molecular target: Alpha-2C adrenergic receptor (Homo sapiens) (UniProt P18825); assay: RLU of ADRA2C at 1.0 µM in the […] PRESTO-Tango GPCRome screen
[3] = molecular target: Type-2 angiotensin II receptor (Homo sapiens) (UniProt P50052); assay: RLU of AGTR2 at 1.0 µM in the […] PRESTO-Tango GPCRome screen
[4] = molecular target: Vasopressin V1b receptor (Homo sapiens) (UniProt P47901); assay: RLU of AVPR1B at 1.0 µM in the […] PRESTO-Tango GPCRome screen
[5] = molecular target: Muscarinic acetylcholine receptor M2 (Homo sapiens) (UniProt P08172); assay: RLU of CHRM2 at 1.0 µM in the […] PRESTO-Tango GPCRome screen
[6] = molecular target: C-X-C chemokine receptor type 3 (Homo sapiens) (UniProt P49682); assay: RLU of CXCR3 at 1.0 µM in the […] PRESTO-Tango GPCRome screen
[7] = molecular target: Endothelin-1 receptor (Homo sapiens) (UniProt P25101); assay: RLU of EDNRA at 1.0 µM in the […] PRESTO-Tango GPCRome screen
[8] = molecular target: Proteinase-activated receptor 4 (Homo sapiens) (UniProt Q96RI0); assay: RLU of F2RL3 at 1.0 µM in the […] PRESTO-Tango GPCRome screen
[9] = molecular target: Free fatty acid receptor 1 (Homo sapiens) (UniProt O14842); assay: RLU of FFA1 (GPR40) at 1.0 µM in the […] PRESTO-Tango GPCRome screen
[10] = molecular target: Growth hormone secretagogue receptor type 1 (Homo sapiens) (UniProt Q92847); assay: RLU of GHSR at 1.0 µM in the […] PRESTO-Tango GPCRome screen
[11] = molecular target: Glucagon-like peptide 2 receptor (Homo sapiens) (UniProt O95838); assay: RLU of GLP2R at 1.0 µM in the […] PRESTO-Tango GPCRome screen
[12] = molecular target: Adhesion G protein-coupled receptor A3 (Homo sapiens) (UniProt Q8IWK6); assay: RLU of GPR125 at 1.0 µM in the […] PRESTO-Tango GPCRome screen
[13] = molecular target: Probable G-protein coupled receptor 156 (Homo sapiens) (UniProt Q8NFN8); assay: RLU of GPR156 at 1.0 µM in the […] PRESTO-Tango GPCRome screen
[14] = molecular target: G-protein coupled receptor 161 (Homo sapiens) (UniProt Q8N6U8); assay: RLU of GPR161 at 1.0 µM in the […] PRESTO-Tango GPCRome screen
[15] = molecular target: G-protein coupled receptor 182 (Homo sapiens) (UniProt O15218); assay: RLU of GPR182 at 1.0 µM in the […] PRESTO-Tango GPCRome screen
[16] = molecular target: G-protein coupled receptor 183 (Homo sapiens) (UniProt P32249); assay: RLU of GPR183 at 1.0 µM in the […] PRESTO-Tango GPCRome screen
[17] = molecular target: Probable G-protein coupled receptor 25 (Homo sapiens) (UniProt O00155); assay: RLU of GPR25 at 1.0 µM in the […] PRESTO-Tango GPCRome screen
[18] = molecular target: 12-(S)-hydroxy-5,8,10,14-eicosatetraenoic acid receptor (Homo sapiens) (UniProt O00270); assay: RLU of GPR31 at 1.0 µM in the […] PRESTO-Tango GPCRome screen
[19] = molecular target: Probable G-protein coupled receptor 85 (Homo sapiens) (UniProt P60893); assay: RLU of GPR85 at 1.0 µM in the […] PRESTO-Tango GPCRome screen
[20] = molecular target: G protein-coupled receptor 88 (Homo sapiens) (UniProt Q9GZN0); assay: RLU of GPR88 at 1.0 µM in the […] PRESTO-Tango GPCRome screen
[21] = molecular target: Adhesion G protein-coupled receptor G3 (Homo sapiens) (UniProt Q86Y34); assay: RLU of GPR97 at 1.0 µM in the […] PRESTO-Tango GPCRome screen
[22] = molecular target: G-protein coupled receptor family C group 5 member D (Homo sapiens) (UniProt Q9NZD1); assay: RLU of GPRC5D at 1.0 µM in the […] PRESTO-Tango GPCRome screen
[23] = molecular target: Histamine H3 receptor (Homo sapiens) (UniProt Q9Y5N1); assay: RLU of HRH3 at 1.0 µM in the Aequorin PRESTO-Tango GPCRome screen
[24] = molecular target: 5-hydroxytryptamine receptor 1F (Homo sapiens) (UniProt P30939); assay: RLU of HTR1F at 1.0 µM in the […] PRESTO-Tango GPCRome screen
[25] = molecular target: 5-hydroxytryptamine receptor 2B (Homo sapiens) (UniProt P41595); assay: RLU of HTR2B at 1.0 µM in the […] PRESTO-Tango GPCRome screen
[26] = molecular target: 5-hydroxytryptamine receptor 5A (Homo sapiens) (UniProt P47898); assay: RLU of HTR5 at 1.0 µM in the […] PRESTO-Tango GPCRome screen
[27] = molecular target: Lysophosphatidic acid receptor 6 (Homo sapiens) (UniProt P43657); assay: RLU of LPAR6 at 1.0 µM in the […] PRESTO-Tango GPCRome screen
[28] = molecular target: Mas-related G-protein coupled receptor member D (Homo sapiens) (UniProt Q8TDS7); assay: RLU of MRGPRD at 1.0 µM in the […] PRESTO-Tango GPCRome screen
[29] = molecular target: Neuropeptides B/W receptor type 1 (Homo sapiens) (UniProt P48145); assay: RLU of NPBW1 at 1.0 µM in the […] PRESTO-Tango GPCRome screen
[30] = molecular target: Neuropeptides B/W receptor type 2 (Homo sapiens) (UniProt P48146); assay: RLU of NPBW2 at 1.0 µM in the […] PRESTO-Tango GPCRome screen
[31] = molecular target: Neuropeptide S receptor (Homo sapiens) (UniProt Q6W5P4); assay: RLU of NPS at 1.0 µM in the […] PRESTO-Tango GPCRome screen
[32] = molecular target: Delta-type opioid receptor (Homo sapiens) (UniProt P41143); assay: RLU of OPRD1 at 1.0 µM in the […] PRESTO-Tango GPCRome screen
[33] = molecular target: 2-oxoglutarate receptor 1 (Homo sapiens) (UniProt Q96P68); assay: RLU of OXGR1 at 1.0 µM in the […] PRESTO-Tango GPCRome screen
[34] = molecular target: Sphingosine 1-phosphate receptor 4 (Homo sapiens) (UniProt O95977); assay: RLU of S1PR4 at 1.0 µM in the […] PRESTO-Tango GPCRome screen
[35] = molecular target: Somatostatin receptor type 2 (Homo sapiens) (UniProt P30874); assay: RLU of SSTR2 at 1.0 µM in the […] PRESTO-Tango GPCRome screen

Chain of Probable G-protein coupled receptor 156 (Homo sapiens) (Q8NFN8 whole entry): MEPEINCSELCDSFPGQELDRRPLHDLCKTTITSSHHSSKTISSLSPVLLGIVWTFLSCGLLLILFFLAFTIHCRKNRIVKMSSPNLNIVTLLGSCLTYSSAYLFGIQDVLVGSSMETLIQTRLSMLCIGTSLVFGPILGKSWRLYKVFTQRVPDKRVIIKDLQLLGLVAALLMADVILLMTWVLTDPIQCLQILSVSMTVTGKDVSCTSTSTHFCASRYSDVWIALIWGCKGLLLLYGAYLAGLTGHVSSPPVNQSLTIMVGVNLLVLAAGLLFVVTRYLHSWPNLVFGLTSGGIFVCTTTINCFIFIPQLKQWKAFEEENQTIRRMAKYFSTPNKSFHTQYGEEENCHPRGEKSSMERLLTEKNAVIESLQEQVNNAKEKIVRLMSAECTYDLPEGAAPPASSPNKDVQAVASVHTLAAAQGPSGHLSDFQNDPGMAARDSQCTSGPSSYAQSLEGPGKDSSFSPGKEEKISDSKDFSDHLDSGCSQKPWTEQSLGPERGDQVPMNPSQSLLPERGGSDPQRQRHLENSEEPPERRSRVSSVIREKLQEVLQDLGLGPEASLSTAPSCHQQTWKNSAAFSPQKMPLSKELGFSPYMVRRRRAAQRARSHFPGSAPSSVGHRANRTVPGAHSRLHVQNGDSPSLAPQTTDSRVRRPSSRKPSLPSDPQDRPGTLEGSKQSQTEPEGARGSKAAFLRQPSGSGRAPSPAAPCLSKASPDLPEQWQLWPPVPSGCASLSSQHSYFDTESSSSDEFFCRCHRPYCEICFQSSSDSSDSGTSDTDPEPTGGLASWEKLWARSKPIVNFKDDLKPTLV
Chain of Muscarinic acetylcholine receptor M2 (Homo sapiens) (P08172 whole entry): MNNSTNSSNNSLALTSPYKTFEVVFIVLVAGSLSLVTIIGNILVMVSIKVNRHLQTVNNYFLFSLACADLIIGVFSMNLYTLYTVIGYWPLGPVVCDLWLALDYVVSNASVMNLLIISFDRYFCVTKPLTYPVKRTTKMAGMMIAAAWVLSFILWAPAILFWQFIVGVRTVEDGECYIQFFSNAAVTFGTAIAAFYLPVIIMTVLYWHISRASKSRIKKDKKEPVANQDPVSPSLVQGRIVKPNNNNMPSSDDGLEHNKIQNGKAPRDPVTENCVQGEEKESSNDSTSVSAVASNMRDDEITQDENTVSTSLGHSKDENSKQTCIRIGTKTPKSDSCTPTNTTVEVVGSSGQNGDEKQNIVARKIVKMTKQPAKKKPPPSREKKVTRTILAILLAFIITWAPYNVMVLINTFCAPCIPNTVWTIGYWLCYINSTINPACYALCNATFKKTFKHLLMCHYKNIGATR
Chain of Neuropeptide S receptor (Homo sapiens) (Q6W5P4 whole entry): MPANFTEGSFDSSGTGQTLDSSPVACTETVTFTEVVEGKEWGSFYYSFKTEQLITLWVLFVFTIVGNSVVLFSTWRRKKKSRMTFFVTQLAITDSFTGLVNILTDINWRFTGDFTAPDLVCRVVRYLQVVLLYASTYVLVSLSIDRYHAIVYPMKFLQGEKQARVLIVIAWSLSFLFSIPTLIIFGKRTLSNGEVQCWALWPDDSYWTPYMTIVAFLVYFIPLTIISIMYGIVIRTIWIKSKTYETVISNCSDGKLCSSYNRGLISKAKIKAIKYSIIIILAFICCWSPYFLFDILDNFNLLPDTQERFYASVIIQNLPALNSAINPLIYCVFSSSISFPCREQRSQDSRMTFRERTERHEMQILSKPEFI
Chain of 5-hydroxytryptamine receptor 5A (Homo sapiens) (P47898 whole entry): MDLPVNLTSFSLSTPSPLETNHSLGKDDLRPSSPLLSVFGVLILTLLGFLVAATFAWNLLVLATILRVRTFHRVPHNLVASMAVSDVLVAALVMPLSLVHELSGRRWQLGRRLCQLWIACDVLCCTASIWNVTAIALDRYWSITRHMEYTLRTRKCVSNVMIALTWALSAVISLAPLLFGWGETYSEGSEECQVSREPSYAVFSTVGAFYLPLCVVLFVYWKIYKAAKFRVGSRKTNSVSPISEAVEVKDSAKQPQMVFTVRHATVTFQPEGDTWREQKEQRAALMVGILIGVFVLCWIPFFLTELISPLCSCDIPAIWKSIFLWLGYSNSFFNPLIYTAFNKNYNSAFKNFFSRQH
Chain of 12-(S)-hydroxy-5,8,10,14-eicosatetraenoic acid receptor (Homo sapiens) (O00270 whole entry): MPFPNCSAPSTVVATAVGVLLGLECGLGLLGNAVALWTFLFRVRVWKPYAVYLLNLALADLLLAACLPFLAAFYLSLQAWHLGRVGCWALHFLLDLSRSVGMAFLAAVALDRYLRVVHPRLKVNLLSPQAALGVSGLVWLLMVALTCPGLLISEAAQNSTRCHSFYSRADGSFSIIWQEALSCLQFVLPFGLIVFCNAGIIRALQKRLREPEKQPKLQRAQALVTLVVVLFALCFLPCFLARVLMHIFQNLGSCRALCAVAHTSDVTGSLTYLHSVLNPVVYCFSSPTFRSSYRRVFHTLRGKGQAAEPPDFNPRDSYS
Chain of Alpha-2C adrenergic receptor (Homo sapiens) (P18825 whole entry): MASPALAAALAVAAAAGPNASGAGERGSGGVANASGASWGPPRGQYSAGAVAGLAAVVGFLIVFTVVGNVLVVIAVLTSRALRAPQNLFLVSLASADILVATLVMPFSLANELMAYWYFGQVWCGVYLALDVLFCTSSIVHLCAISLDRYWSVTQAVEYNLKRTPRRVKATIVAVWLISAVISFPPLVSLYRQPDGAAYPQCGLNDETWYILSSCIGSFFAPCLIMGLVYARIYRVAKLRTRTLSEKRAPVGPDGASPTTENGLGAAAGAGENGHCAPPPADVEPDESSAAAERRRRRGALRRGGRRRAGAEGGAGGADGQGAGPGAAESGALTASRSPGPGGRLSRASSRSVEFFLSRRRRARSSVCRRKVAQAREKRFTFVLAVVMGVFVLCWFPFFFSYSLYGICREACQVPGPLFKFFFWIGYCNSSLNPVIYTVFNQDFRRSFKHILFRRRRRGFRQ
Chain of 5-hydroxytryptamine receptor 1F (Homo sapiens) (P30939 whole entry): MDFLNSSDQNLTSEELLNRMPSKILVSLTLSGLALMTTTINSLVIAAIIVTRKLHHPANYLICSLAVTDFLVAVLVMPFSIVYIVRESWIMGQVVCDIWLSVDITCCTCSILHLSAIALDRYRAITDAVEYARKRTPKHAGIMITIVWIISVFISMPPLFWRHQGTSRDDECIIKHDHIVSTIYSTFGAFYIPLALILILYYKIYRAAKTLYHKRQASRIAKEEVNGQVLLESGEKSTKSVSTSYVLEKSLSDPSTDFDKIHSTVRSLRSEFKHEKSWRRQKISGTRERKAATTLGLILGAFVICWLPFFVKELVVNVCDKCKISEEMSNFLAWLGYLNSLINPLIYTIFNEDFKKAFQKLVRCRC
Chain of 5-hydroxytryptamine receptor 2B (Homo sapiens) (P41595 whole entry): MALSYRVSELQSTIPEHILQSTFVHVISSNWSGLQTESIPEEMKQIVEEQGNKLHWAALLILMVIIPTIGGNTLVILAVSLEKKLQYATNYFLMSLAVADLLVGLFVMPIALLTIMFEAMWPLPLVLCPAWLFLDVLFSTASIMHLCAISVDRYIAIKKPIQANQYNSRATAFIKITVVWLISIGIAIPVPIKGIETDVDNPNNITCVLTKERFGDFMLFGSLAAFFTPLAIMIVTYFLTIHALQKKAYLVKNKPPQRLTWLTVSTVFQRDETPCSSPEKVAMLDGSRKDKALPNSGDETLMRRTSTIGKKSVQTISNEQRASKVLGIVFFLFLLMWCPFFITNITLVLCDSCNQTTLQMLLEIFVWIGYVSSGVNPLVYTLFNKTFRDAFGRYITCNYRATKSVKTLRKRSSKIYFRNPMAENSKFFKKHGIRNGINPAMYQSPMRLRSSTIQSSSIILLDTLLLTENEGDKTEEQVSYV
Chain of Vasopressin V1b receptor (Homo sapiens) (P47901 whole entry): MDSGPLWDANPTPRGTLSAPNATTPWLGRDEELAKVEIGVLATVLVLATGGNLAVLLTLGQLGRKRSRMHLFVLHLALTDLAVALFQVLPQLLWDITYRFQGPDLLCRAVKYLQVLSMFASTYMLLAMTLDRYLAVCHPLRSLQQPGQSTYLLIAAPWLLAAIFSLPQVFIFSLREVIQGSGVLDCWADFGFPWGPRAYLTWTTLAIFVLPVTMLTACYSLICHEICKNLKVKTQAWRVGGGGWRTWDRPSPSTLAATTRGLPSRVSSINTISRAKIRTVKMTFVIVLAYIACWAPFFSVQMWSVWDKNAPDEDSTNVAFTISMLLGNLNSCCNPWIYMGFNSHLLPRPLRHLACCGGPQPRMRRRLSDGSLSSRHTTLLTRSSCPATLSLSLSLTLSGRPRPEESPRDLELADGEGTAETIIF
Chain of Adhesion G protein-coupled receptor G3 (Homo sapiens) (Q86Y34 whole entry): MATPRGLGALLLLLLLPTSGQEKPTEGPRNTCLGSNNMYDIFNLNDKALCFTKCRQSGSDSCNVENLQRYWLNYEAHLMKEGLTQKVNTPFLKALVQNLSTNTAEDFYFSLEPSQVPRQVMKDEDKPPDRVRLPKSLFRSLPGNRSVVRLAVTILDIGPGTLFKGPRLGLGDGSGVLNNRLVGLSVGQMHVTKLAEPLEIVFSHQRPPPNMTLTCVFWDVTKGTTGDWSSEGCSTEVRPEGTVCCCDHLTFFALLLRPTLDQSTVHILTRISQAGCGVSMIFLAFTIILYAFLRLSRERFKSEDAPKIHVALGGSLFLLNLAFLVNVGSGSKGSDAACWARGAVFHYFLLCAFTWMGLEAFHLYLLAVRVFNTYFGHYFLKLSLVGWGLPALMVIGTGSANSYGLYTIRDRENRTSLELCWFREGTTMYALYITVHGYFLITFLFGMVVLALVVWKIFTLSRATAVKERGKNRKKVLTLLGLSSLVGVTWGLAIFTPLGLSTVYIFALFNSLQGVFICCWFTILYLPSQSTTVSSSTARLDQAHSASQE
Chain of Neuropeptides B/W receptor type 2 (Homo sapiens) (P48146 whole entry): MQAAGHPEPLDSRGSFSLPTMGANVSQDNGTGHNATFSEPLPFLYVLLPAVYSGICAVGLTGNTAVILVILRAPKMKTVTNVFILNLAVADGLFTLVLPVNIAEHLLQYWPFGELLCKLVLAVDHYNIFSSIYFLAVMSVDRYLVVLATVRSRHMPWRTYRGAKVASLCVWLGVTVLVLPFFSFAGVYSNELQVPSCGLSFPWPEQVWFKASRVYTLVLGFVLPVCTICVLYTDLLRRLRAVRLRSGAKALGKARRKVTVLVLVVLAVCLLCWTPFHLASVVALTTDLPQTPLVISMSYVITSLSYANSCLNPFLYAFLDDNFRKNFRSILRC

**Q.** For `CCCCC(=O)N1CC2(C1)CN(c1ccccc1-c1nnn[nH]1)C2`, which RLU [1] is on record?
**A.** 6490

**Q.** What about the RLU [2] of the same compound?
**A.** 12100

**Q.** And the RLU [3]?
**A.** 5320

**Q.** What about the RLU [4] of the same compound?
**A.** -688

**Q.** And the RLU [5]?
**A.** -12800

**Q.** And the RLU [6]?
**A.** -568

**Q.** What about the RLU [7] of the same compound?
**A.** -1160

**Q.** And the RLU [8]?
**A.** 125

**Q.** And the RLU [9]?
**A.** 2090

**Q.** And the RLU [10]?
**A.** 1260

**Q.** What about the RLU [11] of the same compound?
**A.** -2690

**Q.** What about the RLU [12] of the same compound?
**A.** -4100

**Q.** What about the RLU [13] of the same compound?
**A.** 1540

**Q.** What about the RLU [14] of the same compound?
**A.** -2640

**Q.** What about the RLU [15] of the same compound?
**A.** 598

**Q.** And the RLU [16]?
**A.** -6100

**Q.** What about the RLU [17] of the same compound?
**A.** -1210

**Q.** What about the RLU [18] of the same compound?
**A.** 1300

**Q.** And the RLU [19]?
**A.** -4210

**Q.** What about the RLU [20] of the same compound?
**A.** 162

**Q.** And the RLU [21]?
**A.** 2050

**Q.** And the RLU [22]?
**A.** 1.74

**Q.** What about the RLU [23] of the same compound?
**A.** -6780

**Q.** And the RLU [24]?
**A.** -3470

**Q.** And the RLU [25]?
**A.** -1740

**Q.** And the RLU [26]?
**A.** -1880

**Q.** What about the RLU [27] of the same compound?
**A.** -7370

**Q.** And the RLU [28]?
**A.** -630

**Q.** And the RLU [29]?
**A.** 4940

**Q.** What about the RLU [30] of the same compound?
**A.** -872

**Q.** What about the RLU [31] of the same compound?
**A.** 3790

**Q.** What about the RLU [32] of the same compound?
**A.** 1290

**Q.** What about the RLU [33] of the same compound?
**A.** -826

**Q.** And the RLU [34]?
**A.** -471

**Q.** What about the RLU [35] of the same compound?
**A.** -163
